Where two headings read alike, the source gives them in different places.
Key:
[1] = oral magnesium salts currently used to treat magnesium deficiencies; cited from earlier work
[2] = system: patients with atrial fibrillation; conditions: oral, two 6-month studies; cited from earlier work
[3] = cited from earlier work
[4] = Adverse events in the placebo-controlled study; assay type: in vivo, human; conditions: among the 34 patients in the study; one withdrew (diarrhea 30 minutes after dosing)
Description: A randomized, double blind, placebo-controlled study was performed at Hartford Hospital. People taking dofetilide or sotalol therapy for at least 5 half-lives were eligible for inclusion. […] After enrollment, people who discontinued their sotalol or dofetilide or altered their dosage of these drugs were excluded as well. Thirty-four participants were enrolled in the study. Three were subsequently excluded because the antiarrhythmics they were using were discontinued or the dose of the antiarrhythmics changed during the study. Given the known baseline differences in QTc intervals among men and women, each gender was randomized separately using stratified allocation. […] All of the other baseline intracellular elements evaluated (phosphorus, chloride, calcium, potassium, and sodium) were within the reference range although the phosphorus was at the top of the range (average=16.7±2.8 mEq/IU with reference range of 14.2-17.0 mEq/IU).
Participants received three tablets of magnesium L-lactate (Mag-Tab SR®; Niche Pharmaceuticals; Roanoke, Tex.) or matching placebo twice daily (504 mg of elemental magnesium daily) for 48 hours (i.e. t=0, 12 h, 24 h, 36 h, and 48 h). A 12-lead electrocardiogram (ECG) was recorded at 25 mm/sec at rest prior to initiation of treatment (i.e. baseline) and at 3 and 51 hours after the first dose of magnesium (i.e. t=3 h and t=51 h) for each participant. […]

[5] = Intracellular elemental concentrations in sublingual buccal smears (EXAtest, energy-dispersive X-ray analysis), same study; assay type: in vivo, human; conditions: for Intracellular magnesium concentration, Baseline: before study therapy; for Intracellular magnesium concentration, Baseline / Intracellular magnesium concentration, Post-Dosing: buccal cells, magnesium group n = 10, normal reference range 33.9-41.9, mean ± SD; for Intracellular magnesium concentration, Post-Dosing: following the third dose
Description: (§1) A randomized, double blind, placebo-controlled study was performed at Hartford Hospital. People taking dofetilide or sotalol therapy for at least 5 half-lives were eligible for inclusion. […] After enrollment, people who discontinued their sotalol or dofetilide or altered their dosage of these drugs were excluded as well. Thirty-four participants were enrolled in the study. Three were subsequently excluded because the antiarrhythmics they were using were discontinued or the dose of the antiarrhythmics changed during the study. Given the known baseline differences in QTc intervals among men and women, each gender was randomized separately using stratified allocation. Patients completing the study (n=30) were well matched for baseline characteristics, which are reflected in Table 1. Intracellular concentrations of essential elements were available for 19 subjects. Overall 63.2% of patients (regardless of experimental group) had baseline intracellular magnesium concentrations below the normal reference range of 33.9-41.9 mEq/IU with an average level of 32.6±2.2 mEq/IU. All of the other baseline intracellular elements evaluated (phosphorus, chloride, calcium, potassium, and sodium) were within the reference range although the phosphorus was at the top of the range (average=16.7±2.8 mEq/IU with reference range of 14.2-17.0 mEq/IU).
(§2) Participants received three tablets of magnesium L-lactate (Mag-Tab SR®; Niche Pharmaceuticals; Roanoke, Tex.) or matching placebo twice daily (504 mg of elemental magnesium daily) for 48 hours (i.e. t=0, 12 h, 24 h, 36 h, and 48 h). A 12-lead electrocardiogram (ECG) was recorded at 25 mm/sec at rest prior to initiation of treatment (i.e. baseline) and at 3 and 51 hours after the first dose of magnesium (i.e. t=3 h and t=51 h) for each participant. A single blinded investigator read all ECGs using a precision ruler of 0.5 mm scale (Schlaedler-Quinzel, Inc. Parsippany, N.J.).
Sublingual buccal smears were obtained from a subgroup of participants prior to initiation of study therapy and following the third dose of magnesium using EXAtest™ kits (Intracellular Diagnostics, Inc.; Foster City, Calif.). Samples were analyzed by energy-dispersive X-ray Analysis for intracellular concentrations of magnesium, phosphorus, chloride, calcium, potassium, and sodium. The use of buccal cell smears for intracellular magnesium was performed because it is noninvasive, reproducible, and correlates well (r=0.68, p<0.002) with atrial cell intracellular magnesium.
(§3) Continuous data was expressed by a mean±SD. A p value less than 0.05 was considered statistically significant. The primary analysis was the intergroup comparisons of the change in QTc interval from baseline at 3 hours and 51 hours using Bazett's formula. Evaluations of the QRS, QT, and RR intervals were compared between groups at each time period as well. Mann-Whitney tests were used for all statistical analyses of continuous ECG data. Intracellular element intragroup comparisons were performed with a paired t-test. Chi^2 or Fischer's Exact tests were used for categorical comparisons. Statistical analysis was performed using SPSS version 5.

[6] = system: people taking dofetilide or sotalol therapy; assay: 12-lead electrocardiogram intervals, randomized, double blind, placebo-controlled study of oral magnesium L-lactate; assay type: in vivo, human; conditions: for QTc Interval 3 Hour / QTc Interval 51 Hour / QTc Baseline: Bazett's formula; for QTc interval reduction: all magnesium-treated patients on sotalol or dofetilide; for QT interval reduction: magnesium therapy
Description: as §1, §2
QT intervals were measured from the onset of the Q wave (or R/S wave if there was no Q wave) to the end of the T wave where it merges with the isoelectric baseline. The beginning and end of the QRS complex were determined by visual inspection, whereas the end of the T-wave was obtained by extrapolating the descending slope of the T-wave to the isoelectric baseline. When au wave interrupts the down sloping of the T-wave, the visible portion of the T wave was extrapolated to the T-P baseline to define the end of the T-wave. The R-R interval was measured from the peak of one R wave to the peak of an adjacent R wave. The QTc interval was corrected for heart rate using Bazett's formula [QTc=QT/(RR)^1/2].
as §3

[7] = 3 hours after first dose, 504 mg elemental magnesium daily, oral, n = 14, mean ± SD
[8] = 51 hours after first dose, 504 mg elemental magnesium daily for 48 hours, oral, n = 14, mean ± SD
[9] = baseline, before first dose, magnesium group n = 14, on sotalol or dofetilide, mean ± SD

magnesium gluconate
bioavailability [1]: about 20%

[Mg+2].[OH-].[OH-] [magnesium hydroxide]
maintaining sinus rhythm [2]: ineffective at maintaining sinus rhythm

[Cl-].[Cl-].[Mg+2] [magnesium chloride]
bioavailability [1]: about 20%

O=S(=O)([O-])[O-].[Mg+2] [magnesium sulfate]
conversion rate ([3]; trial of intravenous magnesium sulfate versus diltiazem, p=0.03): 57% | conversion rate ([3]; trial of intravenous magnesium sulfate versus verapamil, p=0.01): 58%

C[C@H](O)C(=O)[O-].C[C@H](O)C(=O)[O-].[Mg+2] [magnesium L-lactate]
patients who experienced loose bowel movements [4]: 2 patients | intracellular magnesium of patients with baseline concentrations below the normal reference range, after magnesium supplementation ([5]; all such patients, normal reference range 33.9-41.9 mEq/IU): achieving a concentration within the normal reference range | Intracellular magnesium concentration, Baseline [5]: 32.6±2.2 mEq/IU | Intracellular magnesium concentration, Baseline ([5]; listed as Magnesium): 32.2 ± 2.2 mEq/IU | Intracellular magnesium concentration, Post-Dosing [5]: 36.2±2.4 mEq/IU | Intracellular magnesium concentration, Post-Dosing ([5]; listed as Magnesium): 36.2 ± 2.4 mEq/IU | effective in repleting intracellular magnesium levels to normal ranges ([5]; normal range defined as a minimum concentration of 33.9 mEq/IU): 100% | QT Interval 3 Hour [6, 7]: 115300 ± 11100 µM·h | RR Interval 3 Hour [6, 7]: 230400 ± 30860 µM·h | QTc Interval 3 Hour [6, 7]: 121100 ± 17700 µM·h | QTc Interval 3 Hour ([6]; 3 hours after first dose, 504 mg elemental magnesium daily, oral, n = 14, mean ± SD, listed as Magnesium): 121100 ± 17700 µM·h | QRS Interval 3 Hour ([6]; 3 hours after first dose, three tablets twice daily (504 mg elemental magnesium daily), oral, n = 14, mean ± SD): 39890 ± 11600 µM·h | QTc interval reduction ([6]; 3 hours post-dosing): 37 ms | QTc interval reduction from baseline ([6]; 3 hours, group receiving diuretics, mean ± SD): 51.1 ± 42 ms | QT interval reduction ([6]; 3 hours): isms | QTc interval reduction from baseline ([6]; 3 hours, no diuretic group, mean ± SD): 25.5 ± 27.9 ms | QT Interval 51 Hour [6, 8]: 115800 ± 12400 µM·h | RR Interval 51 Hour [6, 8]: 241200 ± 32670 µM·h | QTc Interval 51 Hour [6, 8]: 124800 ± 14300 µM·h | QTc Interval 51 Hour ([6]; 51 hours after first dose, 504 mg elemental magnesium daily for 48 hours, oral, n = 14, mean ± SD, listed as Magnesium): 124800 ± 14300 µM·h | QRS Interval 51 Hour ([6]; 51 hours after first dose, three tablets twice daily for 48 hours (504 mg elemental magnesium daily), oral, n = 14, mean ± SD): 36190 ± 12200 µM·h | QTc interval reduction ([6]; 51 hours): 25 ms | QTc interval reduction from baseline ([6]; 51 hours, group receiving diuretics, mean ± SD): 24.7 ± 24.3 ms | QT interval reduction ([6]; 51 hours): 14 ms | QTc interval reduction from baseline ([6]; 51 hours, no diuretic group, mean ± SD): 26.2 ± 27.4 ms | QTc Baseline [6, 9]: 131200 ± 15000 µM·h | QTc Baseline ([6]; baseline, before first dose, magnesium group n = 14, on sotalol or dofetilide, mean ± SD, listed as Magnesium): 131200 ± 15000 µM·h | QT Interval Baseline [6, 9]: 119600 ± 10600 µM·h | RR Interval Baseline [6, 9]: 235600 ± 45530 µM·h

[O]=[Mg] [magnesium oxide]
bioavailability [1]: about 2%

Reference: patent publication US20140121273A1, “METHOD FOR TREATMENT OF MAGNESIUM AND POTASSIUM DEFICIENCIES” (priority 2005, published 2014)
